Laboratory results as given in US12378211B2, “Carbonic anhydrase inhibitors and antibiotics against multidrug resistant bacteria” (Purdue Research Foundation, priority 2018, dated 2025).
≈ marks a conversion by molar mass, not a printed value. Where two headings read alike, the source gives them in different places.

Columns and labels:
[1] = tested on: Bifidobacterium longum subsp. Longum—44B HM 845; assay: MIC against human normal gut microbiota; type: cell-based; settings: BHIS broth, anaerobic, 48 hours
Outline: (§1)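 Strains are first cultured 48 h at 37° C on agar (BHIS anaerobic; MRS with 5% CO2). They are then adjusted to 0.5 McFarland in PBS and diluted to ~5×10^5 CFU/ml in matching broth. Finally they are incubated 48 h with compound serial dilutions under the same atmosphere.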

[2] = tested on: Bacteroides dorei—CL02T12C06 HM-719; assay: MIC against human normal gut microbiota; type: cell-based; settings: BHIS broth, anaerobic, 48 hours
Outline: as §1

[3] = tested on: Lactobacillus casei ATCC 334; assay: MIC against human normal gut microbiota; type: cell-based; settings: MRS broth, 5% CO2, 48 hours
Outline: as §1

[4] = tested on: Lactobacillus gasseri EX336960VC03 HIM-400; assay: MIC against human normal gut microbiota; type: cell-based; settings: MRS broth, 5% CO2, 48 hours
Outline: as §1

[5] = tested on: Bacteroides fragilis—CL07T00C01 HIM-709; assay: MIC against human normal gut microbiota; type: cell-based; settings: BHIS broth, anaerobic, 48 hours
Outline: as §1

[6] = tested on: Bifidobacterium breve—JCP7499 HIM 1120; assay: MIC against human normal gut microbiota; type: cell-based; settings: BHIS broth, anaerobic, 48 hours
Outline: as §1

[7] = tested on: Mutant-11 of Enterococcus fecalis NR 31975; assay: microbe, parasite or virus in culture; type: cell-based
[8] = tested on: Mutant-13 of Enterococcus fecalis NR 31975; assay: microbe, parasite or virus in culture; type: cell-based
[9] = tested on: Mutant-12 of Enterococcus fecalis NR 31975; assay: microbe, parasite or virus in culture; type: cell-based
[10] = tested on: Mutant-4 of Enterococcus fecalis NR 31975; assay: microbe, parasite or virus in culture; type: cell-based
[11] = tested on: Mutant-7 of Enterococcus fecalis NR 31975; assay: microbe, parasite or virus in culture; type: cell-based
[12] = tested on: Mutant-9 of Enterococcus fecalis NR 31975; assay: microbe, parasite or virus in culture; type: cell-based
[13] = tested on: Mutant-15 of Enterococcus fecalis NR 31975; assay: microbe, parasite or virus in culture; type: cell-based
[14] = tested on: Mutant-14 of Enterococcus fecalis NR 31975; assay: microbe, parasite or virus in culture; type: cell-based
[15] = tested on: Mutant-8 of Enterococcus fecalis NR 31975; assay: microbe, parasite or virus in culture; type: cell-based
[16] = tested on: MRSA NRS 384 (MRSA USA300); assay: MIC against Staphylococci, broth microdilution; type: cell-based, Staphylococcus aureus; settings: TSB
Outline: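 CLSI broth microdilution in tryptone soy broth, inoculum about 5×10^5 CFU/mL from overnight agar cultures at 0.5 McFarland, with serially diluted compound. Plates were incubated aerobically at 37° C for 18-20 h. MIC was the lowest concentration with no visible growth.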

[17] = tested on: Mutant-3 of Enterococcus fecalis NR 31975; assay: microbe, parasite or virus in culture; type: cell-based
[18] = tested on: Enterococcus faecium Patient #2-1-NR-31909; assay: MIC, broth microdilution in TSB; type: cell-based; settings: TSB
Outline: (§2)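 Complete inhibition of visible growth defined the MIC. Bacteria at approximately 5×10^5 CFU/mL faced […]serial dilutions of each compound and were kept aerobically at 37° C for 18-20 hours.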

[19] = tested on: Enterococcus fecalis Strain MMH594-NR31975; assay: MIC, broth microdilution in TSB; type: cell-based; settings: TSB
Outline: as §2

[20] = tested on: Enterococcus faecium E417-HM-965; assay: MIC, broth microdilution in TSB; type: cell-based; settings: TSB
Outline: as §2

[21] = tested on: Enterococcus fecalis Strain SF 28073-NR31972; assay: MIC, broth microdilution in TSB; type: cell-based; settings: TSB
Outline: as §2

[22] = tested on: Enterococcus fecalis Strain SF 24397 NR31970; assay: MIC, broth microdilution in TSB; type: cell-based; settings: TSB
Outline: as §2

[23] = tested on: Enterococcus faecalis—S613 HM-334; assay: MIC, broth microdilution in TSB; type: cell-based; settings: TSB
Outline: as §2

[24] = tested on: Enterococcus faecium Patient #3-1 NR-31912; assay: MIC, broth microdilution in TSB; type: cell-based; settings: TSB
Outline: as §2

[25] = tested on: Enterococcus fecalis Strain SF24413 NR31971; assay: MIC, broth microdilution in TSB; type: cell-based; settings: TSB
Outline: as §2

[26] = Enterococcus faecium, Table 1, read-out: MIC
[27] = Enterococcus faecium, Table 7, read-out: MIC in TSB
[28] = Enterococcus, Table 1, read-out: MIC
[29] = Enterococcus, Table 7, read-out: MIC in TSB

`CC(C)=CC(=O)Nc1nnc(S(N)(=O)=O)s1` [CAI0016, 3-Methyl-N-(5-sulfamoyl-1,3,4-thiadiazol-2-yl) but-2-enamide] was tested, and the MIC [1] was >64 µg/mL, the MIC [2] was >64 µg/mL and the MIC [3] was >64 µg/mL. For the same molecule, the MIC [4] was >64 µg/mL, the MIC [5] was >64 µg/mL and the MIC [6] was >64 µg/mL. The MIC ([7]; Mutant-11) was 4 µg/mL (≈ 15.2 µM), the MIC ([8]; Mutant-13) was 4 µg/mL (≈ 15.2 µM) and the MIC ([9]; Mutant-12) was 8 µg/mL (≈ 30.5 µM). For the same molecule, the MIC ([10]; Mutant-4) was 8 µg/mL (≈ 30.5 µM), the MIC ([11]; Mutant-7) was 4 µg/mL (≈ 15.2 µM) and the MIC ([12]; Mutant-9) was 4 µg/mL (≈ 15.2 µM). It also gave an MIC ([13]; Mutant-15) of 8 µg/mL (≈ 30.5 µM), an MIC ([14]; Mutant-14) of 4 µg/mL (≈ 15.2 µM) and an MIC ([15]; Mutant-8) of 4 µg/mL (≈ 15.2 µM). For the same molecule, the MIC [16] was >64 µg/mL, the MIC ([17]; Mutant-3) was 4 µg/mL (≈ 15.2 µM) and the MIC ([18]; Table 1) was 0.5 µg/mL (≈ 1.91 µM). For the same molecule, the “MIC in TSB” value ([18]; Table 7) was 0.25 µg/mL (≈ 0.953 µM), the MIC ([19]; Table 1) was 0.5 µg/mL (≈ 1.91 µM) and the “MIC in TSB” value ([19]; Table 7) was 0.25 µg/mL (≈ 0.953 µM). The MIC ([20]; Table 1) was 0.25 µg/mL (≈ 0.953 µM), the MIC ([21]; Table 1) was 0.5 µg/mL (≈ 1.91 µM) and the “MIC in TSB” value ([21]; Table 7) was 0.5 µg/mL (≈ 1.91 µM). For the same molecule, the MIC ([22]; Table 1) was 0.5 µg/mL (≈ 1.91 µM), the “MIC in TSB” value ([22]; Table 7) was 0.25 µg/mL (≈ 0.953 µM) and the MIC ([23]; Table 1) was 0.5 µg/mL (≈ 1.91 µM). The “MIC in TSB” value ([23]; Table 7) was 0.25 µg/mL (≈ 0.953 µM), the MIC ([24]; Table 1) was 1 µg/mL (≈ 3.81 µM) and the “MIC in TSB” value ([24]; Table 7) was 0.5 µg/mL (≈ 1.91 µM). For the same molecule, the MIC ([25]; Table 1) was 0.5 µg/mL (≈ 1.91 µM) and the “MIC in TSB” value ([25]; Table 7) was 0.5 µg/mL (≈ 1.91 µM).

In the case of `CC(=O)Nc1nnc(S(N)(=O)=O)s1` [Acetazolamide, reference compound], the MIC ([1]; Bifidobacterium longum, read-out: MIC) is reported as > 64 µg/mL, the MIC ([2]; Bacteroides, read-out: MIC) is reported as > 64 µg/mL and the MIC ([3]; Lacticaseibacillus casei, ATCC334, read-out: MIC) is reported as > 64 µg/mL. The MIC ([4]; Lactobacillus gasseri, read-out: MIC) was > 64 µg/mL, the MIC ([5]; Bacteroides, read-out: MIC) was > 64 µg/mL and the MIC ([6]; Bifidobacterium, read-out: MIC) was > 64 µg/mL. The MIC ([7]; Enterococcus) was 16 µg/mL (≈ 72 µM), the MIC ([8]; Enterococcus) was 32 µg/mL (≈ 144 µM) and the MIC ([9]; Enterococcus) was 32 µg/mL (≈ 144 µM). The MIC ([10]; Enterococcus) was 32 µg/mL (≈ 144 µM), the MIC ([11]; Enterococcus) was 16 µg/mL (≈ 72 µM) and the MIC ([12]; Enterococcus) was 16 µg/mL (≈ 72 µM). The MIC ([13]; Enterococcus) was 32 µg/mL (≈ 144 µM), the MIC ([14]; Enterococcus) was 32 µg/mL (≈ 144 µM) and the MIC ([15]; Enterococcus) was 32 µg/mL (≈ 144 µM). The MIC ([16]; Staphylococcus aureus, read-out: MIC) was > 64 µg/mL, the MIC ([17]; Enterococcus) was 32 µg/mL (≈ 144 µM) and the MIC [18, 26] was 2 µg/mL (≈ 9 µM). It also gave an MIC [18, 27] of 2 µg/mL (≈ 9 µM), an MIC [19, 28] of 4 µg/mL (≈ 18 µM) and an MIC [19, 29] of 4 µg/mL (≈ 18 µM). It also gave an MIC ([20]; Enterococcus faecium, E417HM965, Table 1, read-out: MIC) of 2 µg/mL (≈ 9 µM), an MIC ([20]; Enterococcus faecium, E417HM965, Table 7, read-out: MIC in TSB) of 2 µg/mL (≈ 9 µM) and an MIC [21, 28] of 4 µg/mL (≈ 18 µM). It also gave an MIC [21, 29] of 4 µg/mL (≈ 18 µM), an MIC [22, 28] of 2 µg/mL (≈ 9 µM) and an MIC [22, 29] of 2 µg/mL (≈ 9 µM). For the same molecule, the MIC [23, 28] was 2 µg/mL (≈ 9 µM), the MIC [23, 29] was 2 µg/mL (≈ 9 µM) and the MIC [24, 26] was 2 µg/mL (≈ 9 µM). For the same molecule, the MIC [24, 27] was 2 µg/mL (≈ 9 µM), the MIC [25, 28] was 4 µg/mL (≈ 18 µM) and the MIC [25, 29] was 4 µg/mL (≈ 18 µM).
